Data: PubChem BioAssay AID1963856 (Molecular Pharmacology Branch, DTP, NCI, 2024)

System: LG0567-F671-PDC KRAS tumor spheroid viability
Experiment: Anticancer human tumor LG0567-F671-PDC patient-derived lung adenocarcinoma cell line growth inhibition [KRAS2]
Details: spheroids with HUVEC and MSC; for IC50: curve of first compound; for viability, T/C: stronger effect = lower value
In short: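 KRAS-mutant tumor cells were grown as spheroids with HUVEC endothelial cells and human MSCs as stroma. Targeted agents were tested alone and with KRAS pathway inhibitors. Doses started at or near clinical Cmax, or 10 microM, descending half-log.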

[1] = second compound 0.1 µM, first compound 0.0316 µM
[2] = second compound 0.1 µM, first compound 0.1 µM
[3] = second compound 0.1 µM, first compound 0.316 µM
[4] = second compound 0.1 µM, first compound 1 µM
[5] = second compound 0.1 µM, first compound 3.16 µM
[6] = second compound 0.1 µM, first compound 10 µM
[7] = second compound 0.316 µM, first compound 0.0316 µM
[8] = second compound 0.316 µM, first compound 0.1 µM
[9] = second compound 0.316 µM, first compound 0.316 µM
[10] = second compound 0.316 µM, first compound 1 µM
[11] = second compound 0.316 µM, first compound 3.16 µM
[12] = second compound 0.316 µM, first compound 10 µM
[13] = second compound 1 µM, first compound 0.0316 µM
[14] = second compound 1 µM, first compound 0.1 µM
[15] = second compound 1 µM, first compound 0.316 µM
[16] = second compound 1 µM, first compound 1 µM
[17] = second compound 1 µM, first compound 3.16 µM
[18] = second compound 1 µM, first compound 10 µM
[19] = second compound 3.16 µM, first compound 0.0316 µM
[20] = second compound 3.16 µM, first compound 0.1 µM
[21] = second compound 3.16 µM, first compound 0.316 µM
[22] = second compound 3.16 µM, first compound 1 µM
[23] = second compound 3.16 µM, first compound 3.16 µM
[24] = second compound 3.16 µM, first compound 10 µM
[25] = second compound 10 µM, first compound 0.0316 µM
[26] = second compound 10 µM, first compound 0.1 µM
[27] = second compound 10 µM, first compound 0.316 µM
[28] = second compound 10 µM, first compound 1 µM
[29] = second compound 10 µM, first compound 3.16 µM
[30] = second compound 10 µM, first compound 10 µM
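Also: drug exposure lasted seven days after spheroids formed for three days.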
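For viability, T/C in this document: 100% = DMSO vehicle control viability.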

SMILES | IC50 (second compound 0.1 µM) [nM] | IC50 (second compound 0.316 µM) [nM] | IC50 (second compound 1 µM) [nM] | IC50 (second compound 3.16 µM) [nM] | viability, T/C [1] [%] | viability, T/C [2] [%] | viability, T/C [3] [%] | viability, T/C [4] [%] | viability, T/C [7] [%] | viability, T/C [8] [%] | viability, T/C [9] [%] | viability, T/C [10] [%] | viability, T/C [13] [%] | viability, T/C [14] [%] | viability, T/C [15] [%] | viability, T/C [16] [%] | viability, T/C [19] [%] | viability, T/C [20] [%] | viability, T/C [21] [%] | viability, T/C [22] [%] | further results
CCNC(=O)CC1N=C(c2ccc(Cl)cc2)c2cc(OC)ccc2-n2c(C)nnc21 (stereo not given) + CNCc1ccccc1-c1csc(C(C)Nc2nc(C)nc3cc(OC)c(OC)cc23)c1 | 1010 | 602 | 362 | 127 | 96.7 | 92.1 | 66.1 | 49.9 | 85.4 | 87.6 | 64.1 | 39.2 | 70.2 | 67.6 | 49 | 39 | 72.3 | 62.5 | 1.46 | 0.1 | IC50 (second compound 10 µM): < 31.6 nM; viability, T/C [5]: 42.1%; viability, T/C [6]: 30%; viability, T/C [11]: 32.7%; viability, T/C [12]: 30.6%; viability, T/C [17]: 29.7%; viability, T/C [18]: 25.5%; viability, T/C [23]: 2.03%; viability, T/C [24]: 1.27%; viability, T/C [25]: 0.18%; viability, T/C [26]: 0.15%; viability, T/C [27]: 0.22%; viability, T/C [28]: 0.09%; viability, T/C [29]: 0.09%; viability, T/C [30]: 0.15%
CCN1CCN(Cc2ccc(Nc3ncc(F)c(-c4cc(F)c5nc(C)n(C(C)C)c5c4)n3)nc2)CC1 + C=CC(=O)N1CCN(c2nc(OCC3CCCN3C)nc3c2CCN(c2cccc4cccc(C)c24)C3)CC1CC#N | < 3.16 | < 3.16 | < 3.16 | < 3.16 | 18.6 | 20 | 22.1 | 25.3 | 16.7 | 22.5 | 23.7 | 27.7 | 22.1 | 21.8 | 26 | 33.5 | 25.6 | 29 | 31.4 | 29.4 | IC50 (second compound 0.0316 µM): < 3.16 nM; viability, T/C (second compound 0.0316 µM, first compound 0.00316 µM): 36.1%; viability, T/C (second compound 0.0316 µM, first compound 0.01 µM): 32.4%; viability, T/C (second compound 0.0316 µM, first compound 0.0316 µM): 22.2%; viability, T/C (second compound 0.0316 µM, first compound 0.1 µM): 26.6%; viability, T/C (second compound 0.0316 µM, first compound 0.316 µM): 27.6%; viability, T/C (second compound 0.0316 µM, first compound 1 µM): 31.4%; viability, T/C (second compound 0.1 µM, first compound 0.00316 µM): 32.8%; viability, T/C (second compound 0.1 µM, first compound 0.01 µM): 24.7%; viability, T/C (second compound 0.316 µM, first compound 0.00316 µM): 23.9%; viability, T/C (second compound 0.316 µM, first compound 0.01 µM): 25.3%; viability, T/C (second compound 1 µM, first compound 0.00316 µM): 27.7%; viability, T/C (second compound 1 µM, first compound 0.01 µM): 20.6%; viability, T/C (second compound 3.16 µM, first compound 0.00316 µM): 28%; viability, T/C (second compound 3.16 µM, first compound 0.01 µM): 30.7%
CCNC(=O)CC1N=C(c2ccc(Cl)cc2)c2cc(OC)ccc2-n2c(C)nnc21 (stereo not given) + COc1cc2nc(C)nc(NC(C)c3cc(N)cc(C(F)(F)F)c3)c2cc1OC1CCOC1 | 410 | 411 | 403 | 319 | 97 | 82.3 | 61.6 | 17.1 | 109 | 96.5 | 62.3 | 10 | 84.6 | 87.8 | 60.9 | 9.34 | 78.9 | 69.9 | 50.8 | 9.17 | IC50 (second compound 10 µM): 224 nM; viability, T/C [5]: 8.29%; viability, T/C [6]: 5.17%; viability, T/C [11]: 8.83%; viability, T/C [12]: 7.95%; viability, T/C [17]: 7.07%; viability, T/C [18]: 8.48%; viability, T/C [23]: 6.95%; viability, T/C [24]: 10.1%; viability, T/C [25]: 74.5%; viability, T/C [26]: 59.8%; viability, T/C [27]: 47.5%; viability, T/C [28]: 20.6%; viability, T/C [29]: 10%; viability, T/C [30]: 8.82%
CC1(C)CCC(CN2CCN(c3ccc(C(=O)NS(=O)(=O)c4ccc(NCC5CCOCC5)c([N+](=O)[O-])c4)c(Oc4cnc5[nH]ccc5c4)c3)CC2)=C(c2ccc(Cl)cc2)C1 + COc1cc2nc(C)nc(NC(C)c3cc(N)cc(C(F)(F)F)c3)c2cc1OC1CCOC1 | 1510 | 1360 | 1360 | 1220 | 73.5 | 67.3 | 59 | 68.8 | 67.5 | 66.5 | 61.2 | 59.6 | 69 | 73.3 | 72.6 | 58.7 | 70.2 | 70.7 | 62.8 | 57.8 | IC50 (second compound 10 µM): 640 nM; viability, T/C [5]: 18.8%; viability, T/C [6]: 11.7%; viability, T/C [11]: 25%; viability, T/C [12]: 7.5%; viability, T/C [17]: 24.1%; viability, T/C [18]: 3.67%; viability, T/C [23]: 15.6%; viability, T/C [24]: 5.87%; viability, T/C [25]: 81.3%; viability, T/C [26]: 76.5%; viability, T/C [27]: 63%; viability, T/C [28]: 42.7%; viability, T/C [29]: 14.1%; viability, T/C [30]: 1.67%
